Assay results: patent US20060252807A1, “Novel ortho-terphenyl inhibitors of p38 kinase and methods of treating inflammatory disorders” (Kalypsys, Inc., priority 2005, published 2006)
pIC50: −log10 of the molar value.

What follows are compounds tested against T1, active p38 alpha enzyme (Upstate Biotechnology) (Homo sapiens, UniProt Q16539) (assay: p38α biochemical assay (ATP turnover, luminescent detection, Cambrex PKlight)). Settings: p38α biochemical assay, Table 1 Biological Activity.
T1 construct: purchased Upstate Biotechnology
How it was run: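 Active p38α phosphorylates MapkapK2 whole protein with 1.4 uM final ATP, 2 h at 30C, in Tris/MOPS buffer with MgCl2, CaCl2, EGTA, EDTA, glycerol, β-mercaptoethanol and 1 mg/ml BSA. Compounds pin-delivered from DMSO; total ATP turnover read by luminescence after PKlight addition.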

T1 sequence (Q16539 whole entry): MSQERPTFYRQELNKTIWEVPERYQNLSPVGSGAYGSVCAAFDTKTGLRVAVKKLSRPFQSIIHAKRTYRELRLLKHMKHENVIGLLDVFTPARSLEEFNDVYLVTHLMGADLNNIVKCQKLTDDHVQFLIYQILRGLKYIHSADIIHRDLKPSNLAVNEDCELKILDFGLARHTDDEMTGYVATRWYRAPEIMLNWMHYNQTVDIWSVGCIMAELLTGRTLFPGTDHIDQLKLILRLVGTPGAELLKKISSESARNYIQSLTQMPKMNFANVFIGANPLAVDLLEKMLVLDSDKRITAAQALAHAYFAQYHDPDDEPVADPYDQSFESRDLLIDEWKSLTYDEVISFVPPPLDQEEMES

`O=C(NCC1CC1)c1csc(-c2c(-c3ccc(F)cc3)n[nH]c2C2CCNCC2)n1` [Example 69, 2-|3-(4-Fluoro-phenyl)-5-piperidin-4-yl-1H-pyrazol-4-yl|-thiazole-4-carboxylic acid cyclopropylmethyl-amide] and `CC(=O)NCc1onc(-c2ccc(F)cc2)c1-c1nc(C(=O)NC(C)C)cs1` [Example 573] cannot be ordered by pIC50: ≥ 6.00 for the first, < 6.00 for the second.

`Cc1ccc(C(=O)CCC(=O)N2CCN(Cc3nc(-c4ccc(F)cc4)c(-c4nc(C(=O)NC(C)C)cs4)o3)CC2)cc1` [Example 493] and `CC(C)NC(=O)c1csc(-c2oc(CN3CCN(C(=O)c4cccc(O)c4)CC3)nc2-c2ccc(F)cc2)n1` [Example 361] cannot be ordered by pIC50: < 6.00 for the first, < 6.00 for the second.

`Cc1cccc(C(=O)N2CCN(Cc3nc(-c4ccc(F)cc4)c(-c4nc(C(=O)NC(C)C)cs4)o3)CC2)c1O` [Example 379] and `CC(C)NC(=O)c1csc(-c2oc(CN3CCN(C(=O)c4ccccc4C=O)CC3)nc2-c2ccc(F)cc2)n1` [Example 369] cannot be ordered by pIC50: ≥ 6.00 for the first, ≥ 6.00 for the second.

`CC(C)NC(=O)c1csc(-c2c(-c3ccc(F)cc3)noc2CNC(=O)/C=C/c2ccccc2O)n1` [Example 641] and `CC(C)NC(=O)c1csc(-c2c(-c3ccc(F)cc3)noc2CNC(=O)c2ccc(O)cc2O)n1` [Example 623] cannot be ordered by pIC50: < 6.00 for the first, < 6.00 for the second.

`CC(C)NC(=O)c1csc(-c2c(-c3ccc(F)cc3)noc2CNC(=O)c2cccc(Br)c2)n1` [Example 743] and `CC(C)NC(=O)c1csc(-c2c(-c3ccc(F)cc3)noc2CNC(=O)c2cccc(Cl)c2[N+](=O)[O-])n1` [Example 745] cannot be ordered by pIC50: < 6.00 for the first, < 6.00 for the second.

`CC(C)NC(=O)c1csc(-c2c(-c3ccc(F)cc3)noc2CNC(C=O)c2ccc3cc(O)ccc3c2)n1` (stereo not shown) [Example 717] and `CC(C)NC(=O)c1csc(-c2oc(CNC(=O)c3ccc4cc(O)ccc4c3)nc2-c2ccc(F)cc2)n1` [Example 242] cannot be ordered by pIC50: < 6.00 for the first, ≥ 6.00 for the second.

`CC(C)NC(=O)c1csc(-c2oc(CN3CCN(C(=O)C4CCc5ccccc5C4)CC3)nc2-c2ccc(F)cc2)n1` (stereo not shown) [Example 441] and `CC(C)NC(=O)c1csc(-c2oc(CN3CCN(C(=O)c4c(F)cccc4F)CC3)nc2-c2ccc(F)cc2)n1` [Example 394] cannot be ordered by pIC50: ≥ 6.00 for the first, < 6.00 for the second.

`COc1ccc(/C=C/C(=O)N2CCN(Cc3nc(-c4ccc(F)cc4)c(-c4nc(C(=O)NC(C)C)cs4)o3)CC2)cc1O` [Example 499] and `CC(C)NC(=O)c1csc(-c2oc(CN3CCN(C(=O)c4cccc(Oc5ccccc5)c4)CC3)nc2-c2ccc(F)cc2)n1` [Example 525] cannot be ordered by pIC50: ≥ 6.00 for the first, < 6.00 for the second.

`CC(=O)NCC(=O)NCc1onc(-c2ccc(F)cc2)c1-c1nc(C(=O)NC(C)C)cs1` [Example 585] and `CC(C)NC(=O)c1csc(-c2c(-c3ccc(F)cc3)noc2CNC(=O)c2ccccc2Oc2ccccc2)n1` [Example 764] cannot be ordered by pIC50: < 6.00 for the first, < 6.00 for the second.

`CC(C)NC(=O)c1csc(-c2oc(CNC(=O)C3CCCCN3C(=O)OC(C)(C)C)nc2-c2ccc(F)cc2)n1` (stereo not shown) [Example 311] and `Cc1ccc(C(=O)NCc2nc(-c3ccc(F)cc3)c(-c3nc(C(=O)NC(C)C)cs3)o2)c(C)c1` [Example 134] cannot be ordered by pIC50: < 6.00 for the first, < 6.00 for the second.

`CC(C)NC(=O)c1csc(-c2oc(CNC(=O)c3cc(F)c(F)cc3Cl)nc2-c2ccc(F)cc2)n1` [Example 258] was tested, and the pIC50 was ≥ 6.00.

Same assay, conditions: p38α kinase; Table 1 Biological Activity

`CC(C)NC(=O)c1csc(-c2oc(CN(C)C3CCCCC3)nc2-c2ccc(F)cc2)n1` [Example 1207] and `CC(C)NC(=O)c1csc(-c2oc(CN(C)CCC#N)nc2-c2ccc(F)cc2)n1` [Example 1191] cannot be ordered by pIC50: < 6.00 for the first, < 6.00 for the second.

`COCCNC(=O)c1csc(-c2sc(C)nc2-c2ccc(F)cc2)n1` [Example 1720] and `COc1ccccc1CNC(=O)c1csc(-c2sc(C)nc2-c2ccc(F)cc2)n1` [Example 1779] cannot be ordered by pIC50: < 6.00 for the first, ≥ 6.00 for the second.

`CC(C)NC(=O)c1csc(-c2c(-c3ccc(F)cc3)noc2CNCc2ccco2)n1` [Example 1407] and `CC(C)NC(=O)c1csc(-c2c(-c3ccc(F)cc3)noc2CNCCc2ccccc2Cl)n1` [Example 1478] cannot be ordered by pIC50: < 6.00 for the first, < 6.00 for the second.

`CN1CCCC1CCNC(=O)c1csc(-c2c(-c3ccc(F)cc3)n[nH]c2C2CCNCC2)n1` (stereo not shown) [Example 2084] and `CC(C)NC(=O)c1csc(-c2c(-c3ccc(F)cc3)n[nH]c2C2CCN(C(=O)c3ccc(C#N)cc3)CC2)n1` [Example 2171, 2-|5-|1-(4-Cyano-benzoyl)-piperidin-4-yl|-3-(4-fluoro-phenyl)-1H-pyrazol-4-yl|-thiazole-4-carboxylic acid isopropylamide] cannot be ordered by pIC50: < 6.00 for the first, < 6.00 for the second.

`CC(C)NC(=O)c1csc(-c2oc(CN3CCCC(CO)C3)nc2-c2ccc(F)cc2)n1` (stereo not shown) [Example 1211] and `CC(C)NC(=O)c1csc(-c2oc(CN3CCCN(Cc4ccccc4)CC3)nc2-c2ccc(F)cc2)n1` [Example 1250] cannot be ordered by pIC50: < 6.00 for the first, < 6.00 for the second.

`Cc1nc(-c2ccc(F)cc2)c(-c2nc(C(=O)Nc3ccccc3)cs2)s1` [Example 1955] and `Cc1nc(-c2ccc(F)cc2)c(-c2nc(C(=O)N(C)Cc3cccc4ccccc34)cs2)s1` [Example 1934] cannot be ordered by pIC50: < 6.00 for the first, < 6.00 for the second.

`CC(C)NC(=O)c1csc(-c2c(-c3ccc(F)cc3)noc2CNC(=O)C2Cc3ccccc3CN2C(=O)OC(C)(C)C)n1` (stereo not shown) [Example 808] and `CC(C)NC(=O)c1csc(-c2c(-c3ccc(F)cc3)noc2CN2Cc3ccccc3C2)n1` [Example 1541] cannot be ordered by pIC50: < 6.00 for the first, < 6.00 for the second.

`COc1cc(OC)c(C(=O)N2CCC(c3[nH]nc(-c4ccc(F)cc4)c3-c3nc(C(=O)NC(C)C)cs3)CC2)cc1OC` [Example 998] and `CC(C)NC(=O)c1csc(-c2c(-c3ccc(F)cc3)n[nH]c2C2CCN(C(=O)c3cc4ccccc4s3)CC2)n1` [Example 921] cannot be ordered by pIC50: < 6.00 for the first, < 6.00 for the second.

`Cc1[nH]nc(-c2ccc(F)cc2)c1-c1nc(C(=O)NC(C)C)no1` [Example 2196, 5-|3-(4-Fluoro-phenyl)-5-methyl-1H-pyrazol-4-yl|-|1,2,4|oxadiazole-3-carboxylic acid isopropylamide] and `CCCC(C)NCc1onc(-c2ccc(F)cc2)c1-c1nc(C(=O)NC(C)C)cs1` (stereo not shown) [Example 1398] cannot be ordered by pIC50: < 6.00 for the first, < 6.00 for the second.

`COC(=O)C1CCN(Cc2onc(-c3ccc(F)cc3)c2-c2nc(C(=O)NC(C)C)cs2)CC1` [Example 1557] and `CC(C)NC(=O)c1csc(-c2c(-c3ccc(F)cc3)noc2CN2CCCCC2CO)n1` (stereo not shown) [Example 1539] cannot be ordered by pIC50: < 6.00 for the first, < 6.00 for the second.

`CC(=O)c1ccc(N2CCN(Cc3nc(-c4ccc(F)cc4)c(-c4nc(C(=O)NC(C)C)cs4)o3)CC2)cc1` [Example 1280] and `CC(C)NC(=O)c1csc(-c2oc(CN3CCN(CCN4CCOCC4)CC3)nc2-c2ccc(F)cc2)n1` [Example 1278] cannot be ordered by pIC50: < 6.00 for the first, < 6.00 for the second.

`Cc1nc(-c2ccc(F)cc2)c(-c2nc(C(=O)N3CCN(c4ccccn4)CC3)cs2)s1` [Example 1893] and `Cc1nc(-c2ccc(F)cc2)c(-c2nc(C(=O)N3CCC(N(C)C(=O)OC(C)(C)C)C3)cs2)s1` (stereo not shown) [Example 1930] cannot be ordered by pIC50: < 6.00 for the first, < 6.00 for the second.

`Cc1ccc(C(=O)CCC(=O)N2CCC(c3[nH]nc(-c4ccc(F)cc4)c3-c3nc(C(=O)NC(C)C)cs3)CC2)cc1` [Example 970] and `CC(C)NC(=O)c1csc(-c2c(-c3ccc(F)cc3)noc2CN2CCN(Cc3ccc4c(c3)OCO4)CC2)n1` [Example 1620] cannot be ordered by pIC50: < 6.00 for the first, < 6.00 for the second.

`CC(C)NC(=O)c1csc(-c2oc(CNCCc3ccc(F)cc3)nc2-c2ccc(F)cc2)n1` [Example 1127] and `CC(C)NC(=O)c1csc(-c2oc(CNC3CC(C)(C)NC(C)(C)C3)nc2-c2ccc(F)cc2)n1` [Example 1152] cannot be ordered by pIC50: < 6.00 for the first, < 6.00 for the second.
